Laboratory results published in publication PMC12501029, “Discovery of a CNS active GSK3 degrader using orthogonally reactive linker screening” (Nature Communications, 2025).

Target: T1, GSK3α (Homo sapiens, UniProt P49840)
T1 construct: Endogenous GSK3 paralog degradation with compounds 24 and 26 and negative controls 27 and 28 in HEK293 cells; host or cells: HEK293
Assay: Immunoblot degradation of endogenous GSK3α in HEK293 cells
Assay type: cell-based
Conditions: 10 nM, 2 h
Method: HEK293, HAP1, HAP1 CRBN KO and SH-SY5Y cells were plated in either 6 cm plates or 6-well plates at varying densities (0.5–0.7 × 10^6 cells per plate or wells), and MEF cells were plated in 10 cm plates (1–1.2 × 10^6 cells per plate) depending on experimental set up in respective culturing condition as described above. Stock solutions of compounds were prepared as 10 mM in DMSO (Sigma–Aldrich). Working dilutions were made up fresh in DMSO and culturing media or differentiation media was refreshed prior to any compound treatments. For mode of action studies, cells were pre-treated with inhibitors for 2 h: 1 µM MG132 (Merck, 474790-5 mg), 1 µM MLN4924 (Merck, 5054770001) or 1 µM GSK3 inhibitor (compound 29), before treating with PROTACs for 2, 4 or 24 h as indicated in figure legends. Cells were washed twice with ice-cold PBS (Gibco), harvested in PBS and pelleted, cells were resuspended in RIPA buffer supplemented with complete EDTA-free protease inhibitor cocktail (Roche,11873580001, 1/10 mL) and phosSTOP (Roche, 04906845001, 1 tablet/10 mL) for 20 min lysis on ice then cleared via centrifugation at 16,000 × g, 4 °C for 20 min. […] Following clearance of lysates, protein concentrations were determined by the BCA assay (Fisher Scientific, 23225) or Bradford assay (Bio-rad). […]

T1 sequence (P49840 whole entry): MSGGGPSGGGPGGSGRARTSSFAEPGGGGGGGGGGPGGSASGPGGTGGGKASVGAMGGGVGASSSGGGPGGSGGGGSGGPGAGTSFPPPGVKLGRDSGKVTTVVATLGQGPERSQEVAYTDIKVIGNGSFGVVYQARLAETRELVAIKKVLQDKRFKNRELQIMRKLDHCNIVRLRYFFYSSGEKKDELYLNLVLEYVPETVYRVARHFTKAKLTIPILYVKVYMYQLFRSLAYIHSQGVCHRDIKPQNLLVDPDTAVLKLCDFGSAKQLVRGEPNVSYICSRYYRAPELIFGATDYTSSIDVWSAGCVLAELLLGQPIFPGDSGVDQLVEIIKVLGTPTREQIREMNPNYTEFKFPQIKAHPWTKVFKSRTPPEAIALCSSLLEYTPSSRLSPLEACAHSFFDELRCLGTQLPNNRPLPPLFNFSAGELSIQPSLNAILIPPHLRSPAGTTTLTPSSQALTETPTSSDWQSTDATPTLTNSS

| SMILES | endogenous GSK3α degradation |
| --- | --- |
| Cn1nc(N2CCC(=O)NC2=O)c2ccc(CN3CCN(Cc4ccc(-c5cn(-c6ccc(-c7cn8nccc(C(=O)Nc9cnccc9N9CCOCC9)c8n7)cc6)nn5)nc4)CC3)cc21 [compound 24] | almost complete |
| Cn1nc(N2CCC(=O)NC2=O)c2ccc(CN3CCN(CCCc4cn(-c5ccc(-c6cn7nccc(C(=O)Nc8cnccc8N8CCOCC8)c7n6)cc5)nn4)CC3)cc21 [compound 26] | almost complete |
